Reference: patent US20180002319A1, “MACROCYCLIC PICOLINAMIDE COMPOUNDS WITH FUNGICIDAL ACTIVITY” (DOW AGROSCIENCES LLC, priority 2014, published 2018)
Like-named read-outs stand apart in the source and are kept apart here.

Experiments:
Zymoseptoria tritici = assay: Leaf Blotch of Wheat (SEPTTR) fungicidal activity; assay type: in vivo; settings: wheat leaf blotch; for pest or weed control at 121.5 g/ha: Low Volume application, 121.5 g/H; for pest or weed control at 100 ppm: High Volume application
Method: Example A: Evaluation of Fungicidal Activity: Leaf Blotch of Wheat (Zymoseptoria tritici; Bayer Code […]) Technical grades of materials were dissolved in acetone, which were then mixed with nine volumes of H2O containing 110 ppm Triton X-100. The fungicide solutions were applied onto wheat seedlings using an automated booth sprayer to run-off. All sprayed plants were allowed to air dry prior to further handling. All fungicides were evaluated using the aforementioned method for their activity vs. all target diseases, unless stated otherwise. Wheat leaf blotch and brown rust activity were also evaluated using track spray applications, in which case the fungicides were formulated as EC formulations, containing 0.1% Trycol 5941 in the spray solutions. Wheat plants (variety Yuma) were grown from seed in a greenhouse in 50% mineral soil/50% soil-less Metro mix until the first leaf was fully emerged, with 7-10 seedlings per pot. These plants were inoculated with an aqueous spore suspension of Zymoseptoria tritici either prior to or after fungicide treatments. After inoculation the plants were kept in 100% relative humidity (one day in a dark dew chamber followed by two to three days in a lighted dew chamber at 20° C.) to permit spores to germinate and infect the leaf. The plants were then transferred to a greenhouse set at 20° C. for disease to develop. When disease symptoms were fully expressed on the 1st leaves of untreated plants, infection levels were assessed on a scale of 0 to 100 percent disease severity. Percent disease control was calculated using the ratio of disease severity on treated plants relative to untreated plants.

Puccinia triticina = assay: Wheat Brown Rust (PUCCRT) fungicidal activity; assay type: in vivo; settings: for pest or weed control at 121.5 g/ha: Low Volume application, 121.5 g/H
Method: Technical grades of materials were dissolved in acetone, which were then mixed with nine volumes of H2O containing 110 ppm Triton X-100. The fungicide solutions were applied onto wheat seedlings using an automated booth sprayer to run-off. All sprayed plants were allowed to air dry prior to further handling. All fungicides were evaluated using the aforementioned method for their activity vs. all target diseases, unless stated otherwise. Wheat leaf blotch and brown rust activity were also evaluated using track spray applications, in which case the fungicides were formulated as EC formulations, containing 0.1% Trycol 5941 in the spray solutions. Wheat plants (variety Yuma) were grown from seed in a greenhouse in 50% mineral soil/50% soil-less Metro mix until the first leaf was fully emerged, with 7-10 seedlings per pot. These plants were inoculated with an aqueous spore suspension of Zymoseptoria tritici either prior to or after fungicide treatments. After inoculation the plants were kept in 100% relative humidity (one day in a dark dew chamber followed by two to three days in a lighted dew chamber at 20° C.) to permit spores to germinate and infect the leaf. The plants were then transferred to a greenhouse set at 20° C. for disease to develop. When disease symptoms were fully expressed on the 1st leaves of untreated plants, infection levels were assessed on a scale of 0 to 100 percent disease severity. Percent disease control was calculated using the ratio of disease severity on treated plants relative to untreated plants. Example B: Evaluation of Fungicidal Activity: Wheat Brown Rust (Puccinia triticina; Bayer Code PUCCRT) Wheat plants (variety Yuma) were grown from seed in a greenhouse in 50% mineral soil/50% soil-less Metro mix until the first leaf was fully emerged, with 7-10 seedlings per pot. These plants were inoculated with an aqueous spore suspension of Puccinia triticina either prior to or after fungicide treatments. After inoculation the plants were kept in a dark dew room at 22° C. with 100% relative humidity overnight to permit spores to germinate and infect the leaf. The plants were then transferred to a greenhouse set at 24° C. for disease to develop. Fungicide formulation, application and disease assessment followed the procedures as described in the Example A.

[1] = 24 h, 1 day protectant, read-out: SEPTTR disease control, 1DP (1 Day Protectant)
[2] = 72 h, 3 day curative, read-out: SEPTTR disease control, 3DC (3 Day Curative)
[3] = 24 h, 1 day protectant, read-out: PUCCRT disease control, 1DP (1 Day Protectant)
[4] = 72 h, 3 day curative, read-out: PUCCRT disease control, 3DC (3 Day Curative)

SMILES	pest or weed control at 121.5 g/ha (Zymoseptoria tritici; [1]) [%]	pest or weed control at 121.5 g/ha (Zymoseptoria tritici; [2]) [%]	pest or weed control at 121.5 g/ha (Puccinia triticina; [3]) [%]	pest or weed control at 121.5 g/ha (Puccinia triticina; [4]) [%]	pest or weed control at 100 ppm (Zymoseptoria tritici; [1]) [%]	pest or weed control at 100 ppm (Zymoseptoria tritici; [2]) [%]	pest or weed control at 100 ppm (Puccinia triticina; 24 h, High Volume application, 100 ppm, 1 day protectant, read-out: PUCCRT disease control, 1DP (1 Day Protectant)) [%]
CCC[C@H]1CCCC[C@H](NC(=O)c2nccc(OC)c2OCOC(C)=O)C(=O)O[C@@H](C)[C@@H]1OC(=O)C(C)C [Compound 31]	< 80	< 80	> 80	< 80			
COc1ccc(CO[C@H]2[C@H](C)OC(=O)[C@@H](NC(=O)c3nccc(OC)c3OCOC(C)=O)CCOC[C@@H]2OCc2ccc(OC)cc2)cc1 [Compound 32]		< 80		< 80			
COc1ccnc(C(=O)N[C@H]2CCCC[C@@H]3OC(C)(C)O[C@H]3[C@H](C)OC2=O)c1OCOC(C)=O [Compound 33]	< 80	> 80	> 80	> 80			
COc1ccnc(C(=O)N[C@H]2CCCC[C@H](OC)[C@@H](OC3CCCC3)[C@H](C)OC2=O)c1OCOC(C)=O [Compound 34]	< 80	> 80	> 80	> 80			
COc1ccnc(C(=O)N[C@H]2CCCC[C@H](Oc3ccccc3)[C@@H](OC3CCCC3)[C@H](C)OC2=O)c1OCOC(C)=O [Compound 36]	< 80	< 80	> 80	> 80			
CCCOC(=O)O[C@H]1CCCC[C@H](NC(=O)c2nccc(OC)c2OCOC(C)=O)C(=O)O[C@@H](C)[C@@H]1OCC(C)C [Compound 38]	> 80	> 80	> 80	< 80			
COc1ccnc(C(=O)N[C@H]2CCOC[C@H](OC)[C@@H](Oc3ccccc3)[C@H](C)OC2=O)c1OCOC(C)=O [Compound 40]	> 80	> 80	> 80	> 80			
CCCO[C@H]1COCC[C@H](NC(=O)c2nccc(OC)c2OCOC(C)=O)C(=O)O[C@@H](C)[C@@H]1Oc1ccccc1 [Compound 41]	> 80	> 80	> 80	> 80			
CCCO[C@H]1[C@H](C)OC(=O)[C@@H](NC(=O)c2nccc(OC)c2OCOC(C)=O)CCOC[C@@H]1Oc1ccccc1 [Compound 42]	< 80	< 80	> 80	< 80			
COc1ccnc(C(=O)N[C@H]2CCOC[C@H](OC(=O)C(C)C)[C@@H](Oc3ccccc3)[C@H](C)OC2=O)c1OCOC(C)=O [Compound 44]	< 80	< 80	> 80	> 80			
COc1ccnc(C(=O)N[C@H]2CCOC[C@H](OCC(C)C)[C@@H](Oc3ccccc3)[C@H](C)OC2=O)c1OCOC(C)=O [Compound 45]	> 80	> 80	> 80	> 80			
COc1ccnc(C(=O)N[C@H]2CCOC[C@H](Oc3ccccc3)[C@@H](OCC(C)C)[C@H](C)OC2=O)c1OCOC(C)=O [Compound 46]	> 80	< 80	> 80	< 80			
COc1ccnc(C(=O)N[C@H]2CCOC[C@H](Oc3ccccc3)[C@@H](Oc3ccccc3)[C@H](C)OC2=O)c1OC(C)=O [Compound 47]	> 80	> 80	> 80	> 80			
COc1ccnc(C(=O)N[C@H]2CCOC[C@H](OC)[C@@H](Oc3ccccc3)[C@H](C)OC2=O)c1OC(C)=O [Compound 48]	> 80	> 80	> 80	> 80			
CC(=O)OCOc1cccnc1C(=O)N[C@H]1CCCC[C@H](CC2CCCC2)[C@@H](Oc2ccccc2)[C@H](C)OC1=O [Compound 49]	< 80		> 80	< 80	< 80	< 80	> 80
COc1ccnc(C(=O)N[C@H]2CCCC[C@H](CC3CCCC3)[C@@H](Oc3ccccc3)[C@H](C)OC2=O)c1OCOC(C)=O [Compound 50]	> 80	< 80	> 80	> 80			
CCOCC(=O)OCOc1c(OC)ccnc1C(=O)N[C@H]1CCCC[C@H](CC2CCCC2)[C@@H](Oc2ccccc2)[C@H](C)OC1=O [Compound 51, ((2-(((3S,8R,9R,10S)-8-(cyclopentylmethyl)-10-methyl-2-oxo-9-phenoxyoxecan-3-yl)carbamoyl)-4-methoxypyridin-3-yl)oxy)methyl 2-ethoxyacetate]	> 80		> 80	< 80			
COc1ccnc(C(=O)N[C@H]2CCCC[C@H](CC3CCCC3)[C@@H](Oc3ccccc3)[C@H](C)OC2=O)c1OC(C)=O [Compound 52]	> 80		> 80	< 80			
C=CCO[C@@H]1[C@@H](CC2CCCC2)CCCC[C@H](NC(=O)c2nccc(OC)c2OCOC(C)=O)C(=O)O[C@H]1C [Compound 53]		< 80	< 80				
COc1ccnc(C(=O)N[C@H]2CCCC[C@H](CC3CCCC3)[C@@H](OC(=O)C(C)C)[C@H](C)OC2=O)c1OCOC(C)=O [Compound 54]	> 80		> 80	< 80			
CCOCC(=O)OCOc1c(OC)ccnc1C(=O)N[C@H]1CCCC[C@H](CC2CCCC2)[C@@H](OC(=O)C(C)C)[C@H](C)OC1=O [Compound 55]	< 80	< 80	> 80	< 80			
COc1ccnc(C(=O)N[C@H]2CCCC[C@H](CC3CCCC3)[C@@H](OC(=O)C(C)C)[C@H](C)OC2=O)c1OC(C)=O [Compound 56, (2S,3R,4R,9S)-9-(3-acetoxy-4-methoxypicolinamido)-4-(cyclopentylmethyl)-2-methyl-10-oxooxecan-3-yl isobutyrate]	> 80	< 80	> 80	< 80			
CCCO[C@@H]1[C@@H](CC2CCCC2)CCCC[C@H](NC(=O)c2nccc(OC)c2OCOC(C)=O)C(=O)O[C@H]1C [Compound 57]	< 80		> 80	< 80			
CCCO[C@@H]1[C@@H](CC2CCCC2)CCCC[C@H](NC(=O)c2nccc(OC)c2OC(C)=O)C(=O)O[C@H]1C [Compound 58]	< 80	< 80	> 80	< 80			
